US20240325381A1 (GUANGZHOU INSTITUTES OF BIOMEDICINE AND HEALTH, CHINESE …, priority 2021, published 2024)

Key:
Format in all cases: cell-based
[1] = tested on: neural precursor cells labeled with LC3-GFP and mito-DsRed; assay: Co-localization of mitochondria with LC3-GFP labeled autophagosomes (confocal microscope); details: 15 μM flunarizine, 12 hours
Method: The neural precursor cells labeled with LC3-GFP and mito-DsRed were plated on the glass slides, and the surface coverage of the neural precursor cells on the glass slides was 80%. […] Then, the results were detected with a confocal microscope.

[2] = tested on: Mito-GFP-labeled mouse embryonic fibroblasts (MEF cells); assay: Mitochondrial clearance in MEF cells with mitophagy core genes knocked off; details: 15 μM flunarizine, 3 days; WT, ATG5, PARK2, FUNDC1
Method: Mito-GFP-labeled mouse embryonic fibroblasts (MEF cells) were plated on a glass slide. The corresponding classic mitophagy core genes (including WT, ATG5, PARK2, and FUNDC1) in the MEF cells were knocked off. The surface coverage of the cells on the glass slide was 80%. […] Then, the cells were detected with a confocal microscope.

[3] = tested on: Mito-DsRed-labeled neural precursor cells; assay: Mitochondrial efflux (mitochondria, lysosome and cell membrane overlap); details: 15 μM flunarizine, 24 hours; Lysotraker DeepRed, FM1-43
Method: Mito-DsRed-labeled neural precursor cells were plated on a glass slide, and the surface coverage of the neural precursor cells on the glass slide was 80%. […] The final concentration was 15 μM. The lysosomes were labeled with Lysotraker DeepRed, the cell membranes were labeled with FM1-43, and then the results were detected with a confocal microscope.

[4] = tested on: Mito-GFP-labeled neural precursor cells; assay: Mitochondrial clearance after knockdown of classic mitophagy core genes in neural precursor cells; details: 15 μM flunarizine, 3 days; shTRC, shATG5-a/b, shPINK1-a/b, shFUNDC1-a/b
Method: The corresponding classic mitophagy core genes (including shTRC, shATG5-a, shATG5-b, shPINK1-a, shPINK1-b, shFUNDC1-a, and shFUNDC1-b) in mito-GFP-labeled neural precursor cells were knocked down. Then, the cells were plated on a glass slide, the surface coverage of neural precursor cells on the glass slide was 80%. […] Thereafter, the cells were detected with a confocal microscope. The specific results are illustrated in FIG. 3B and FIG. 3C.

[5] = tested on: neural precursor cells labeled with LAMP1-GFP and mito-DsRed; assay: Mitochondria entering lysosomes (LAMP1-GFP / mito-DsRed overlap); details: 15 μM flunarizine, 12 hours
Method: The neural precursor cells labeled with LAMP1-GFP and mito-DsRed were plated on a glass slide, and the surface coverage of the neural precursor cells on the glass slide was 80%. […] Then, the results were detected with a confocal microscope.

[6] = tested on: Mito-GFP-labeled neural precursor cells; assay: Clearance of mitochondria by flunarizine in mito-GFP-labeled neural precursor cells (confocal microscopy); details: for mitochondrial morphology in neural precursor cells: 3 days
Method: Mito-GFP-labeled neural precursor cells were plated on a 6-well plate, and the surface coverage of the neural precursor cells on the 6-well plate was 80%. […] Then, the cells were detected with a confocal microscopy and the clearance efficiency of the mitochondrial was observed.
The mito-GFP-labeled neural precursor cells were plated on a 6-well plate, and the surface coverage of the neural precursor cells on the 6-well plate was 80%. […] Then, the results were detected with a confocal microscope and the efficiency of the mitochondrial clearance was observed.

Fc1ccc(C(c2ccc(F)cc2)N2CCN(C/C=C/c3ccccc3)CC2)cc1 [flunarizine]
co-localization of mitochondria with LC3-GFP labeled autophagosomes [1]: not co-localized with LC3-GFP labeled autophagosomes
mitochondrial clearance in MEF cells with mitophagy genes knocked off [2]: knockdown of mitophagy-related genes cannot inhibit mitochondrial clearance
mitochondrial efflux vesicles on the cell surface [3]: efflux vesicles wrapped around mitochondria were formed
mitochondrial clearance after knockdown of mitophagy core genes [4]: knockdown of related genes could not inhibit mitochondrial clearance
overlap of LAMP1 and mito (mitochondria entering lysosomes) [5]: wrapped by lysosomes
removal of intracellular mitochondria ([6]; 15 μM flunarizine, 3 days of treatment, 80% surface coverage): substantially completely removed
concentration that can effectively remove the mitochondria in the cells ([6]; after 3 days of treatment, tested 5, 10, 15, 20, 25 μM): above 10 μM
removal of intracellular mitochondria ([6]; contact time more than 3 days): completely removed
mitochondrial morphology in neural precursor cells ([6]; final concentration 15 μM): basically not observed
mitochondrial morphology in neural precursor cells ([6]; final concentration 20 μM): basically not observed
mitochondrial morphology in neural precursor cells ([6]; final concentration 25 μM): basically not observed
